Measurements as given in patent US20060024392A1, “Compositions and methods for enhancing the effectiveness of a chemotherapeutic agent” (priority 2004, published 2006).

Key:
[1] = test system: male Sprague Dawley rats
Description: The purpose of this experiment was to determine if the toxicity of 5FU would be decreased by feeding rats a diet supplemented with anthocyanin-rich extract (ARE) prior to and during 5FU treatment.
Rats were randomly allocated in two diet groups and maintained for two weeks on either AIN93 or AIN93 plus 4 g anthocyanin/kg (Table 7).
Seventy-two hours after the 5FU injections, rats were euthanized by CO2 inhalation. Blood was collected by heart puncture into heparinized tubes, the stomach and entire intestines were removed and stomach, duodenum, jejunum, ileum, cecum and colon sections were fixed in formalin for histopathological evaluation. In addition to the gastrointestinal tract, the following organs were also collected at necropsy for histopathological evaluation: heart, liver, kidney, spleen and bone marrow. These tissues were also fixed in formalin. All tissues were then routinely processed and stained with H&E for pathological evaluation.

[2] = test system: NCM460 normal colon cells; experiment: Sulforhodamine B (SRB) cell growth assay in NCM460 normal colon cells; assay type: cell-based, human
Description: HT-29, a cell line derived from colorectal adenocarcinoma (ATCC, HTB 38), grows in McCoy's 5A medium (Biowhittaker, Inc. Walkersville, Md.). NCM460, a cell line derived from a normal human colon (InCell Corp. San Antonio, Tex.), grows in M3 Base media (InCell Corp. San Antonio, Tex.).
Both cell lines are kept at 37° C. and 5% CO2 atmosphere. Both media are supplemented with 10% fetal bovine serum (FBS, Biowhittaker, Inc. Walkersville, Md.).
Cells are fixed in situ by the gentle addition of 50 μl of cold 50% (w/v) TCA (final concentration, 10% TCA) and incubated for 60 minutes at 4° C. The supernatant is discarded, and the plates are washed five times with tap water and air dried. Sulforhodamine B (SRB) solution (100 μl) at 0.4% (w/v) in 1% acetic acid is added to each well, and plates are incubated for 10 minutes at room temperature. After staining, unbound dye is removed by washing five times with 1% acetic acid and the plates are air dried. Bound stain is subsequently solubilized with 100 μl 10 mM trizma base for 5 minutes, and the absorbance at wavelength of 490 nm was spectrophotometrically measured using a microplate reader Elx800 (Bio-Tek instruments, Inc.).
Cells were seeded in 96-well cluster tissue culture plates (Costar), containing 100 μl complete growth medium per well at densities of 5,000 cells per well. Incubated at 37° C. in a humidified tissue culture incubator. After 24 Hour, 100 μl complete medium containing 5 half-log dilutions of the 5FU from 2*10^−4 to 2*10^−6 M was added into each well (final concentrations are from 10^−4 to 10^−6 M). Six replicates were used for each concentration. Media containing 0.125% DMSO was used as control. After 48 hours of incubation with 5FU in medium, cell proliferation was assessed using the SRB assay.
Percentage growth (Growth%) is calculated as: [(Ti−Tz)/(C−Tz)]×100 [absorbance measurements at time zero (Tz), control growth (C), and test growth in the presence of drug at the different concentration levels (Ti)].
Growth inhibition of 50% (GI50) is calculated from [(Ti−Tz)/(C−Tz)]×100=50, which is the drug concentration resulting in a 50% reduction in the net protein increase (as measured by SRB staining) in control cells during the drug incubation.
Similar method as Experiment 1 was used, except cells were exposed to 5FU at concentration ranging from 10^−4.5 to 10^−7 M. Media containing 0.01% DMSO was used as control. Lower concentrations were used since it was observed that 0.1% DMSO inhibited the growth of NCM460 cells. The experiment was repeated 5 times.
The protocol was the same as Experiment 3, except cells were exposed to 5FU at concentration ranging from 10^−5 to 10^−7 M with chokeberry ARE at concentration of 5, 15.6, 50 μg monomeric anthocyanin/ml growth media. […] Differences in response are most evident at the 5 FU concentration of 10^−6 M and ARE concentration of 15.6 μg monomeric anthocyanin/ml. In normal cells, there is no difference in the percent growth by 5FU with or without ARE, whereas in colon cancer cells, growth with 5FU alone was 80% of control, and further reduced to 40% with ARE and 5 FU.

[3] = test system: colon cancer; settings: clinical treatment of colon cancer; cited from earlier work
[4] = rats, 72 hours after 200 mg/kg 5FU i.p., AIN93 diet with or without 4 g anthocyanin/kg

SMILES: O=c1[nH]cc(F)c(=O)[nH]1 [5FU, 5-fluorouracil]
- clinical signs in preliminary experiment ([1]; 2 rats, 5FU 200 mg/kg): caused weight loss and diarrhea
- bone marrow histopathology [1, 4]: panmyelophthisis of the bone marrow with congestion
- kidney histopathology [1, 4]: acute toxic nephropathy of the proximal convoluted tubules was present in all 5FU treated animals in mild to moderate severity
- small intestine histopathology [1, 4]: intestinal villi were moderately to severely denuded
- overall histopathological changes in tissues ([1]; rats, 5FU 200 mg/kg i.p. or AIN93 plus 4 g anthocyanin/kg diet with saline): significant acute toxicological changes
- Growth % ([2]; 5FU 1.0E−4.5 M, experiment 1): 45.13%
- OD ([2]; 5FU 1.0E−4.5 M, experiment 1): 0.264
- Growth % ([2]; 5FU 1.0E−4.5 M, experiment 2): 33.85%
- OD ([2]; 5FU 1.0E−4.5 M, experiment 2): 0.242
- Growth % ([2]; 5FU 1.0E−4.5 M, experiment 3): 36.70%
- OD ([2]; 5FU 1.0E−4.5 M, experiment 3): 0.256
- Growth % ([2]; 5FU 1.0E−5 M, experiment 1): 53.85%
- OD ([2]; 5FU 1.0E−5 M, experiment 1): 0.281
- Growth % ([2]; 5FU 1.0E−5 M, experiment 2): 48.21%
- OD ([2]; 5FU 1.0E−5 M, experiment 2): 0.27
- Growth % ([2]; 5FU 1.0E−5 M, experiment 3): 45.41%
- OD ([2]; 5FU 1.0E−5 M, experiment 3): 0.275
- Growth % ([2]; 5FU 1.0E−5 M, experiment 4): 57.58%
- OD ([2]; 5FU 1.0E−5 M, experiment 4): 0.285
- Growth % ([2]; 5FU 1.0E−5 M, experiment 5): 51.41%
- OD ([2]; 5FU 1.0E−5 M, experiment 5): 0.279
- Growth % ([2]; 5FU 1.0E−5.5 M, experiment 1): 55.38%
- OD ([2]; 5FU 1.0E−5.5 M, experiment 1): 0.284
- Growth % ([2]; 5FU 1.0E−5.5 M, experiment 2): 67.69%
- OD ([2]; 5FU 1.0E−5.5 M, experiment 2): 0.308
- Growth % ([2]; 5FU 1.0E−5.5 M, experiment 3): 60.55%
- OD ([2]; 5FU 1.0E−5.5 M, experiment 3): 0.308
- Growth % ([2]; 5FU 1.0E−5.5 M, experiment 4): 75.38%
- OD ([2]; 5FU 1.0E−5.5 M, experiment 4): 0.332
- Growth % ([2]; 5FU 1.0E−5.5 M, experiment 5): 72.54%
- OD ([2]; 5FU 1.0E−5.5 M, experiment 5): 0.339
- Growth % ([2]; 5FU 1.0E−6 M, experiment 1): 56.41%
- OD ([2]; 5FU 1.0E−6 M, experiment 1): 0.286
- Growth % ([2]; 5FU 1.0E−6 M, experiment 2): 63.08%
- OD ([2]; 5FU 1.0E−6 M, experiment 2): 0.299
- Growth % ([2]; 5FU 1.0E−6 M, experiment 3): 66.06%
- OD ([2]; 5FU 1.0E−6 M, experiment 3): 0.32
- Growth % ([2]; 5FU 1.0E−6 M, experiment 4): 93.56%
- OD ([2]; 5FU 1.0E−6 M, experiment 4): 0.38
- Growth % ([2]; 5FU 1.0E−6 M, experiment 5): 87.32%
- OD ([2]; 5FU 1.0E−6 M, experiment 5): 0.381
- Growth % ([2]; 5FU 1.0E−6.5 M, experiment 1): 59.49%
- OD ([2]; 5FU 1.0E−6.5 M, experiment 1): 0.292
- Growth % ([2]; 5FU 1.0E−6.5 M, experiment 2): 83.59%
- OD ([2]; 5FU 1.0E−6.5 M, experiment 2): 0.339
- Growth % ([2]; 5FU 1.0E−6.5 M, experiment 3): 78.44%
- OD ([2]; 5FU 1.0E−6.5 M, experiment 3): 0.347
- Growth % ([2]; 5FU 1.0E−6.5 M, experiment 4): 97.35%
- OD ([2]; 5FU 1.0E−6.5 M, experiment 4): 0.39
- Growth % ([2]; 5FU 1.0E−6.5 M, experiment 5): 92.61%
- OD ([2]; 5FU 1.0E−6.5 M, experiment 5): 0.396
- Growth % ([2]; 5FU 1.0E−7 M, experiment 4): 99.62%
- OD ([2]; 5FU 1.0E−7 M, experiment 4): 0.396
- Growth % ([2]; 5FU 1.0E−7 M, experiment 5): 89.79%
- OD ([2]; 5FU 1.0E−7 M, experiment 5): 0.388
- response rate [3]: 20%
